Source: the NIST ThermoML archive (doi:10.1016/j.jct.2009.11.014)

Settings: Liquid; for mass density: vibrating tube; for viscosity: Stony Brook Scientific falling needle HPHTV-100 viscometer

CCCCCCCC[n+]1ccn(C)c1.F[B-](F)(F)F [1-methyl-3-octylimidazolium tetrafluoroborate]
Settings | mass density [kg/m3] | viscosity [mPa·s]
283.15 K, 100 kPa | 1114.58 | –
283.15 K, 2000 kPa | 1115.49 | –
283.15 K, 4000 kPa | 1116.46 | –
283.15 K, 6000 kPa | 1117.44 | –
283.15 K, 8000 kPa | 1118.4 | –
283.15 K, 10000 kPa | 1119.31 | –
283.15 K, 12000 kPa | 1120.25 | –
283.15 K, 14000 kPa | 1121.19 | –
283.15 K, 20000 kPa | 1123.96 | –
283.15 K, 30000 kPa | 1128.45 | –
283.15 K, 40000 kPa | 1132.79 | –
283.15 K, 50000 kPa | 1136.9 | –
283.15 K, 60000 kPa | 1140.94 | –
283.53 K, 140 kPa | – | 774.7
283.53 K, 680 kPa | – | 781
283.55 K, 1680 kPa | – | 793.9
283.55 K, 7960 kPa | – | 878.4
283.6 K, 11830 kPa | – | 908.6
283.6 K, 14620 kPa | – | 950.1
283.61 K, 10090 kPa | – | 894.7
283.63 K, 4380 kPa | – | 815.4
283.65 K, 4110 kPa | – | 811.4
283.67 K, 5540 kPa | – | 834.1
283.72 K, 2750 kPa | – | 803.7
288.15 K, 100 kPa | 1111.12 | –
288.15 K, 2000 kPa | 1112.07 | –
288.15 K, 4000 kPa | 1113.07 | –
288.15 K, 6000 kPa | 1114.04 | –
288.15 K, 8000 kPa | 1115.03 | –
288.15 K, 10000 kPa | 1116.03 | –
288.15 K, 12000 kPa | 1116.94 | –
288.15 K, 14000 kPa | 1117.9 | –
288.15 K, 20000 kPa | 1120.72 | –
288.15 K, 30000 kPa | 1125.21 | –
288.15 K, 40000 kPa | 1129.56 | –
288.15 K, 50000 kPa | 1133.75 | –
288.15 K, 60000 kPa | 1137.81 | –
293.15 K, 100 kPa | 1107.68 | –
293.15 K, 2000 kPa | 1108.68 | –
293.15 K, 4000 kPa | 1109.68 | –
293.15 K, 6000 kPa | 1110.66 | –
293.15 K, 8000 kPa | 1111.66 | –
293.15 K, 10000 kPa | 1112.63 | –
293.15 K, 12000 kPa | 1113.61 | –
293.15 K, 14000 kPa | 1114.55 | –
293.15 K, 20000 kPa | 1117.38 | –
293.15 K, 30000 kPa | 1121.95 | –
293.15 K, 40000 kPa | 1126.31 | –
293.15 K, 50000 kPa | 1130.56 | –
293.15 K, 60000 kPa | 1134.64 | –
293.65 K, 130 kPa | – | 403.7
293.65 K, 2010 kPa | – | 409.7
293.65 K, 4090 kPa | – | 423
293.65 K, 4310 kPa | – | 418.7
293.65 K, 6110 kPa | – | 433.3
293.65 K, 6580 kPa | – | 434.4
293.65 K, 8080 kPa | – | 447.6
293.65 K, 10200 kPa | – | 458.3
293.65 K, 12100 kPa | – | 466.6
293.65 K, 14310 kPa | – | 478.8
293.65 K, 14330 kPa | – | 483.6
298.15 K, 100 kPa | 1104.31 | –
298.15 K, 2000 kPa | 1105.26 | –
298.15 K, 4000 kPa | 1106.28 | –
298.15 K, 6000 kPa | 1107.31 | –
298.15 K, 8000 kPa | 1108.29 | –
298.15 K, 10000 kPa | 1109.29 | –
298.15 K, 12000 kPa | 1110.27 | –
298.15 K, 14000 kPa | 1111.29 | –
298.15 K, 20000 kPa | 1114.12 | –
298.15 K, 30000 kPa | 1118.74 | –
298.15 K, 40000 kPa | 1123.16 | –
298.15 K, 50000 kPa | 1127.47 | –
298.15 K, 60000 kPa | 1131.57 | –
303.15 K, 100 kPa | 1100.92 | –
303.15 K, 2000 kPa | 1101.88 | –
303.15 K, 4000 kPa | 1102.9 | –
303.15 K, 6000 kPa | 1103.93 | –
303.15 K, 8000 kPa | 1104.97 | –
303.15 K, 10000 kPa | 1105.98 | –
303.15 K, 12000 kPa | 1107.03 | –
303.15 K, 14000 kPa | 1107.96 | –
303.15 K, 20000 kPa | 1110.85 | –
303.15 K, 30000 kPa | 1115.56 | –
303.15 K, 40000 kPa | 1120.01 | –
303.15 K, 50000 kPa | 1124.34 | –
303.15 K, 60000 kPa | 1128.52 | –
303.74 K, 13240 kPa | – | 258.3
303.8 K, 2750 kPa | – | 227.3
303.82 K, 14800 kPa | – | 261.8
303.85 K, 4160 kPa | – | 230.6
303.85 K, 5600 kPa | – | 233.6
303.91 K, 8710 kPa | – | 241.6
303.95 K, 11220 kPa | – | 250.7
303.96 K, 160 kPa | – | 219.1
304.01 K, 2040 kPa | – | 222.9
304.03 K, 1190 kPa | – | 221.6
304.05 K, 6140 kPa | – | 232.1
304.05 K, 7390 kPa | – | 238.6
308.15 K, 100 kPa | 1097.49 | –
308.15 K, 2000 kPa | 1098.5 | –
308.15 K, 4000 kPa | 1099.56 | –
308.15 K, 6000 kPa | 1100.61 | –
308.15 K, 8000 kPa | 1101.64 | –
308.15 K, 10000 kPa | 1102.66 | –
308.15 K, 12000 kPa | 1103.66 | –
308.15 K, 14000 kPa | 1104.66 | –
308.15 K, 20000 kPa | 1107.61 | –
308.15 K, 30000 kPa | 1112.34 | –
308.15 K, 40000 kPa | 1116.89 | –
308.15 K, 50000 kPa | 1121.29 | –
308.15 K, 60000 kPa | 1125.53 | –
312.95 K, 650 kPa | – | 137.4
312.95 K, 1600 kPa | – | 139.3
313.05 K, 130 kPa | – | 137.3
313.05 K, 2670 kPa | – | 141.1
313.05 K, 4260 kPa | – | 142.8
313.05 K, 6130 kPa | – | 145.7
313.05 K, 8180 kPa | – | 150.2
313.05 K, 10130 kPa | – | 152.7
313.05 K, 12200 kPa | – | 157.1
313.05 K, 14260 kPa | – | 161
313.15 K, 100 kPa | 1094.13 | –
313.15 K, 2000 kPa | 1095.13 | –
313.15 K, 4000 kPa | 1096.26 | –
313.15 K, 6000 kPa | 1097.28 | –
313.15 K, 8000 kPa | 1098.3 | –
313.15 K, 10000 kPa | 1099.33 | –
313.15 K, 12000 kPa | 1100.39 | –
313.15 K, 14000 kPa | 1101.41 | –
313.15 K, 20000 kPa | 1104.39 | –
313.15 K, 30000 kPa | 1109.19 | –
313.15 K, 40000 kPa | 1113.81 | –
313.15 K, 50000 kPa | 1118.25 | –
313.15 K, 60000 kPa | 1122.52 | –
318.15 K, 100 kPa | 1090.78 | –
318.15 K, 2000 kPa | 1091.83 | –
318.15 K, 4000 kPa | 1092.91 | –
318.15 K, 6000 kPa | 1094 | –
318.15 K, 8000 kPa | 1095.03 | –
318.15 K, 10000 kPa | 1096.1 | –
318.15 K, 12000 kPa | 1097.15 | –
318.15 K, 14000 kPa | 1098.18 | –
318.15 K, 20000 kPa | 1101.2 | –
318.15 K, 30000 kPa | 1106.06 | –
318.15 K, 40000 kPa | 1110.72 | –
318.15 K, 50000 kPa | 1115.21 | –
318.15 K, 60000 kPa | 1119.54 | –
323.15 K, 100 kPa | 1087.45 | –
323.15 K, 2000 kPa | 1088.5 | –
323.15 K, 4000 kPa | 1089.6 | –
323.15 K, 6000 kPa | 1090.68 | –
323.15 K, 8000 kPa | 1091.76 | –
323.15 K, 10000 kPa | 1092.8 | –
323.15 K, 12000 kPa | 1093.87 | –
323.15 K, 14000 kPa | 1094.9 | –
323.15 K, 20000 kPa | 1097.97 | –
323.15 K, 30000 kPa | 1102.88 | –
323.15 K, 40000 kPa | 1107.6 | –
323.15 K, 50000 kPa | 1112.12 | –
323.15 K, 60000 kPa | 1116.48 | –
323.43 K, 140 kPa | – | 83.7
323.46 K, 680 kPa | – | 84.3
323.55 K, 1710 kPa | – | 85
323.56 K, 13080 kPa | – | 96.3
323.58 K, 14330 kPa | – | 97.4
323.63 K, 9640 kPa | – | 92.7
323.65 K, 130 kPa | – | 83.6
323.65 K, 2760 kPa | – | 85.9
323.65 K, 6190 kPa | – | 88.2
323.65 K, 11060 kPa | – | 93.2
323.68 K, 4240 kPa | – | 86.8
323.73 K, 8190 kPa | – | 90.2
323.75 K, 10400 kPa | – | 92.1
323.75 K, 12340 kPa | – | 94
